Assay results taken from patent US20220054532A1, “VETERINARY COMPOSITIONS AND METHODS OF USE THEREFOR” (priority 2019, published 2022).

Tests used:
Assay type in all cases: in vivo
[1] = tested on: dogs with a history of severe, chronic skin issues, atopy, pruritis, yeast overgrowth, and/or infection; experiment: Example 8: skin conditions (itch score) and side effects in dogs; set-up: Average Side Effect Score: scale not given here
From the text: (§1) This example examines the ability of embodiments of the invention versus prednisone to treat skin conditions.
(§2) The patient group is twenty-four dogs with a history of severe, chronic skin issues, atopy, pruritis, yeast overgrowth, and/or infection, as diagnosed by their referring veterinarian. The patient group is broken into six groups of four animals. The first group receives prednisone as the sole active agent; the second group receives a composition comprising prednisone and HMW HA as the active agents; the third group receives a composition comprising HMW HA as the sole active agent; the fourth group receives a composition comprising CBD as the sole active agent; the fifth group receives a composition comprising HMW HA and CBD as the active agents; and the sixth group receives a composition comprising HMW HA, CBD, quercetin, and nettles as the active agents.
(§3) Each composition is administered for a period of sixty (60) days, BID. Each dog is evaluated on days 0 (“Initial Score”), 20, 40, and 60 (“Final Score”) of treatment. The results are averaged and characterized on a scale of 0 (no itching—normal dog), 2 (very mild itching—only occasional episodes), 4 (mild itching), 6 (moderate itching—regular episodes), 8 (severe itching—prolonged episodes), to 10 (extremely severe itching—almost continuous).
The following scores are observed and the results depicted in FIG. 8: […]

[2] = tested on: dogs with a history of severe, chronic skin issues, atopy, pruritis, yeast overgrowth, and/or infection; experiment: Example 16: skin conditions (itch score) and side effects in dogs (CBD Complex); details: dogs with skin conditions; 60 days BID
From the text: as §1
as §2, with “and CBD Complex as the” for “and CBD as the”, “HMW HA, CBD Complex, quercetin, and” for “HMW HA, CBD, quercetin, and”
as §3

[3] = tested on: dogs suffering from heart failure; experiment: Example 7: heart failure in dogs; details: heart failure scale 1 (few to no clinical signs) to 10 (severe)
From the text: This example examines the ability of embodiments of the invention versus enalapril to treat heart failure.
The patient group is twenty-four dogs suffering from heart failure.
The patient group is broken into six groups of four dogs. The first group receives enalapril as the sole active agent; the second group receives a composition comprising enalapril and Lasix®; the third group receives a composition comprising HMW HA as the sole active agent; the fourth group receives a composition comprising CBD as the sole active agent; the fifth group receives a composition comprising HMW HA and CBD as the active agents; and the sixth group receives a composition comprising HMW HA, CBD, liposomal CoQ10, hawthorn berry, and ginko biloba as the active agents.
Each composition is administered for a period of ninety (90) days, BID. Each animal is evaluated on days 0 (“Initial Score”), 30, 60, and 90 (“Final Score”) of treatment. The results are averaged and characterized on a scale of 1 (few to no clinical signs of heart failure) to 10 (severe heart failure).
The following canine scores are observed and the results depicted in FIG. 7: […]

[4] = tested on: dogs suffering from cognitive dysfunction syndrome; experiment: Example 2: cognitive decline, Cognitive Dysfunction Screening Checklist; details: for Average Final Score: day 60, BID
From the text: (§4) This example examines the ability of embodiments of the invention versus Anipryl® to treat cognitive decline.
The patient group is twenty dogs suffering from cognitive dysfunction syndrome, as determined by the Cognitive Dysfunction Screening Checklist. See G. Landsberg et al., 2003 HANDBOOK OF BEHAVIOR PROBLEMS OF THE DOG AND CAT (Elsevier Science Limited) (2003). The twenty dogs are broken into five groups of four dogs. The first group receives Anipryl® as the sole active agent; the second group receives a composition comprising HMW HA as the sole active agent; the third group receives a composition comprising CBD as the sole active agent; the fourth group receives a composition comprising HMW HA and CBD as the active agents; and the fifth group receives a composition comprising HMW HA, CBD, nicotinamide adenine dinucleotide (“NAD”), and phosphatidylserine as the active agents.
(§5) Each composition is administered for a period of sixty (60) days, twice per day (“BID”). The owner completes the Checklist on days 0 (“Initial Score”), 15, 30, 45, and 60 (“Final Score”) of treatment.
Each group is evaluated and Checklist scores averaged. The following scores are observed and the results depicted in FIG. 2: […]

[5] = tested on: dogs suffering from cognitive dysfunction syndrome; experiment: Example 10: cognitive decline, Cognitive Dysfunction Screening Checklist (CBD Complex); details: for Average Final Score: day 60, BID
From the text: as §4
The patient group is twenty dogs suffering from cognitive dysfunction syndrome, as determined by the Cognitive Dysfunction Screening Checklist. See G. Landsberg et al., 2003 HANDBOOK OF BEHAVIOR PROBLEMS OF THE DOG AND CAT (Elsevier Science Limited) (2003). The twenty dogs are broken into five groups of four dogs. The first group receives Anipryl® as the sole active agent; the second group receives a composition comprising HMW HA as the sole active agent; the third group receives a composition comprising CBD as the sole active agent; the fourth group receives a composition comprising HMW HA and CBD Complex as the active agents; and the fifth group receives a composition comprising HMW HA, CBD Complex, nicotinamide adenine dinucleotide (“NAD”), and phosphatidylserine as the active agents.
as §5
Each group is evaluated and Checklist scores averaged. The following scores are observed and the results depicted in FIG. 10: […]

[6] = tested on: dogs suffering from GI-specific inflammation; experiment: Example 3: GI-specific inflammation, owner-rated symptom reduction (canine); details: symptom reduction score 0 (no reduction) to 4 (resolution of symptoms)
From the text: (§6) This example examines the ability of embodiments of the invention versus Pepcid® to treat unwanted GI-specific inflammation characterized by gastritis, reflux, vomiting, diarrhea, and inappetence.
(§7) The first patient group is twenty dogs suffering from GI-specific inflammation. The second patient group is twenty cats suffering from GI-specific inflammation. Each patient group is broken into five groups of four animals. The first groups receive Pepcid® as the sole active agent; the second groups receive a composition comprising HMW HA as the sole active agent; the third groups receive a composition comprising CBD as the sole active agent; the fourth groups receive a composition comprising HMW HA and CBD as the active agents; and the fifth groups receive a composition comprising HMW HA, CBD, and glutathione as the active agents.
(§8) Each composition is administered for a period of twenty-eight (28) days, BID. The owner observes potential reduction of symptoms at the end of treatment and rates the reduction as no reduction (score of 0), mild reduction (score of 1), moderate reduction (score of 2), significant reduction (score of 3), or resolution of symptoms (score of 4).
The following canine scores are observed and the results depicted in FIG. 3a: […]

[7] = tested on: cats suffering from GI-specific inflammation; experiment: Example 3: GI-specific inflammation, owner-rated symptom reduction (feline); details: symptom reduction score 0 (no reduction) to 4 (resolution of symptoms)
From the text: as §6, §7, §8
The following feline scores are observed and the results depicted in FIG. 3b: […]

[8] = tested on: dogs suffering from GI-specific inflammation; experiment: Example 11: GI-specific inflammation, owner-rated symptom reduction (canine, CBD Complex); details: canine (FIG. 11a), symptom reduction score 0 (no reduction) to 4 (resolution of symptoms)
From the text: as §6
as §7, with “and CBD Complex as the” for “and CBD as the”, “HMW HA, CBD Complex, and glutathione” for “HMW HA, CBD, and glutathione”
as §8

[9] = tested on: cats suffering from GI-specific inflammation; experiment: Example 11: GI-specific inflammation, owner-rated symptom reduction; details: species not given, symptom reduction score 0 to 4
From the text: as §6
as §7, with “and CBD Complex as the” for “and CBD as the”, “HMW HA, CBD Complex, and glutathione” for “HMW HA, CBD, and glutathione”
as §8

[10] = tested on: dogs suffering from osteoarthritis; experiment: Example 1: pain relief and side effects in canine osteoarthritis; details: dogs with osteoarthritis, 4 weeks of administration, group average
From the text: (§9) This example examines the ability of various compositions to minimize pain and examines the level of adverse side effects of each composition.
(§10) At the outset of the study, participants receive a full physical examination, including weight measurement, thigh circumference, and CBC/blood chemistries. Because osteoarthritis is not only a disease of pain, but one characterized by behavioral, appetite, anxiety/aggression, family socialization, and sleep aberrations, the pet's owners are familiarized with the pain scale (canine orthopedic index) and additional behavioral assessment log.
The patient group is twenty-four dogs suffering from osteoarthritis, broken into eight groups of three dogs. The first group receives a control composition with no active agent; the second group receives a composition comprising HA as the sole active agent; the third group receives a composition comprising HMW HA as the sole active agent; the fourth group receives a composition comprising CBD as the sole active agent; the fifth group receives a composition comprising HA and CBD as the active agents; the sixth group receives a composition comprising HMW HA and CBD as the active agents; the seventh group receives a composition comprising Rimadyl as the active agent; and the eighth group receives a composition comprising Meloxicam as the active agent.
(§11) Each composition is administered for a period of four (4) weeks. The owner completes the electronic log questionnaire each week. At the end of the 4-week study, participants have another full physical examination, including weight measurement, thigh circumference, and CBC/blood chemistries, with an exit interview of the owners to gain final impressions.
Each group is evaluated for pain scores and the scores averaged. The following scores are observed and the results depicted in FIG. 1: […]

[11] = tested on: dogs suffering from osteoarthritis; experiment: Example 9: pain relief and side effects in canine osteoarthritis (CBD Complex); details: dogs with osteoarthritis, 4 weeks of administration, group average
From the text: as §9, §10
The patient group is twenty-four dogs suffering from osteoarthritis, broken into eight groups of three dogs. The first group receives a control composition with no active agent; the second group receives a composition comprising HA as the sole active agent; the third group receives a composition comprising HMW HA as the sole active agent; the fourth group receives a composition comprising CBD as the sole active agent; the fifth group receives a composition comprising HA and CBD as the active agents; the sixth group receives a composition comprising HMW HA and CBD Complex as the active agents; the seventh group receives a composition comprising Rimadyl as the active agent; and the eighth group receives a composition comprising Meloxicam as the active agent.
as §11
Each group is evaluated for pain scores and the scores averaged. The following scores are observed and the results depicted in FIG. 9: […]

Molecule: C[C@]12C=CC(=O)C=C1CC[C@@H]1[C@@H]2C(=O)C[C@@]2(C)[C@H]1CC[C@]2(O)C(=O)CO [Prednisone]
- Average Side Effect Score ([1]; dogs with skin conditions, 60 days BID): 17
- Initial Itch Score ([1]; itch scale 0 (no itching) to 10 (extremely severe), day 0): 9
- Final Itch Score ([1]; itch scale 0 (no itching) to 10 (extremely severe), day 60, BID): 6
- Average Side Effect Score [2]: 17

Molecule: CCOC(=O)[C@H](CCc1ccccc1)N[C@@H](C)C(=O)N1CCC[C@H]1C(=O)O [Enalapril]
- Initial Score ([3]; day 0): 8
- Final Score ([3]; day 90, BID): 5

Molecule: C#CCN(C)[C@H](C)Cc1ccccc1 [Anipryl ®, Selegiline]
- Average Initial Score ([4]; day 0 (before treatment)): 3
- Average Final Score [4]: 2
- Average Final Score ([4]; listed as Anipryl®): as effective as HMW HA alone
- Average Initial Score ([5]; day 0 (before treatment)): 3
- Average Final Score [5]: 2
- Average Final Score ([5]; listed as Anipryl®): as effective as HMW HA alone

Molecule: NC(N)=Nc1nc(CSCCC(N)=NS(N)(=O)=O)cs1 [Pepcid ®, Famotidine]
- Final Score ([6]; after 28 days BID): 1
- Initial Score ([6]; initial): 0
- Final Score ([7]; after 28 days BID): 1
- Initial Score ([7]; initial): 0
- Final Score ([8]; after 28 days BID): 1
- Initial Score ([8]; initial): 0
- Final Score ([9]; after 28 days BID): 1
- Initial Score ([9]; initial): 0

Molecule: hyaluronic acid [HA Alone]
- Average Pain Score [10]: 18
- Average Side Effect Score [10]: 6
- Average Pain Score ([10]; listed as HA alone): only slightly reduce pain
- Average Side Effect Score ([10]; listed as HA alone): low degree of adverse side effects
- Average Pain Score [11]: 18
- Average Side Effect Score [11]: 6
- Average Pain Score ([11]; listed as HA alone): only slightly reduce pain
- Average Side Effect Score ([11]; listed as HA alone): low degree of adverse side effects
